Test results reported in patent publication US20230201870A1, “PLASMA COATING METHOD AND APPARATUS FOR BIOLOGICAL SURFACE MODIFICATION” (MOLECULAR PLASMA GROUP S.A., priority 2020, published 2023).
Where two headings read alike, the source gives them in different places.

Assays:
Format in all cases: cell-based
Bacteriophage MS2 = assay: Viral load reduction test (ASTM E2721-16, MS2 in place of Influenza A) on plasma-coated substrate
[1] = test system: Staphylococcus aureus (gram-positive); assay: Antibacterial activity of plasma-coated material (OECD guideline, ISO 22197/20743), gram-positive; conditions: S. aureus
[2] = test system: Escherichia coli (gram-negative); assay: Antibacterial activity of plasma-coated material (OECD guideline, ISO 22197/20743), gram-negative; conditions: E. coli
[3] = plasma coating from precursor on Tyvek substrate, MS2 phages, vs untreated control, LOD = limit of detection
[4] = PPNW substrate (polypropylene nonwoven, 25 g/m^2)
[5] = synthetic textile substrate (Tyvek)

Molecule | LOG Reduction (Bacteriophage MS2; [3]) | %Gram+ bacteria reduced [1, 4] | Gram+ log reduction [1, 4] | %Gram+ bacteria reduced [1, 5] | Gram+ log reduction [1, 5] | % Gram-bacteria reduced [2, 4] | Gram-log reduction [2, 4] | % Gram-bacteria reduced [2, 5] | Gram-log reduction [2, 5] | LOG Reduction (Bacteriophage MS2)
O=C(O)CC(O)(CC(=O)O)C(=O)O [Citric acid] | > 5.0 (LOD) log | > 99.995% | > 4.3 log | > 99.98% | > 3.8 log | > 99.999% | > 5.0 log | 97.5% | 1.6 log | 
CCCCCCCCCCCCCCCCCC[N+](C)(C)CCC[Si](OC)(OC)OC.[Cl-] [SiQAM, Dimethyloctadecyl[3-(trimethoxysilyl)propyl] ammonium chloride solution] | 1.56 log | > 99.994% | > 4.2 log | > 99.95% | > 3.3 log | > 99.9996% | > 5.4 log | > 98.7% | > 1.9 log | 
C=CC(=O)NCCC[N+](C)(C)C.[Cl-] [APTAC, (3-Acrylamidopropyl)trimethylammonium chloride] | 2.1 log |  |  |  |  |  |  |  |  | 
C=C(C)C(=O)OCCN(C)C [DIMAEMA, 2-(N,N-dimethylamino)ethyl methacrylate] |  | > 99.994% | > 4.2 log | > 99.95% | > 3.3 log | > 99.9996% | > 5.4 log | 20.6% | 0.1 log | 
Benzalkonium chloride [reference compound] |  | > 99.994% | > 4.2 log | > 99.5% | > 3.3 log |  | 5.4 log |  | 1.9 log | > 3.8 (LOD) log
